Measurements published in US11370798B2 (Vertex Pharmaceuticals Incorporated, priority 2012, dated 2022).

tested on: HCT116 colorectal cancer cells; experiment: Cisplatin sensitization assay (96 h cell viability MTS); type: cell-based; conditions: compound and Cisplatin added simultaneously, Cisplatin sensitization value;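 also: Test-compound concentration that lowers the Cisplatin IC50 by a set fold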
How it was run: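 Viability read by MTS (1 h at 37° C) after 96 h co-exposure at 37° C, 5% CO2. Test compound and cisplatin were dosed simultaneously in a full concentration matrix, each 2-fold serially diluted from 10 μM final; sensitization values binned in μM.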

Row | SMILES | Cisplatin Sensitization Assay
1 | Nc1nn2cc(Cl)cnc2c1C(=O)Nc1cnccc1OCCCO [I-O-53, 2-amino-6-chloro-N-(4-(3-hydroxypropoxy)pyridin-3-yl)pyrazolo[1,5-a]pyrimidine-3-carboxamide] | +++ (Cisplatin sensitization value of <0.02 μM)
2 | Nc1nn2cc(Cl)cnc2c1C(=O)Nc1cnccc1O[C@@H]1CCOC1 [I-O-54, (R)-2-amino-6-chloro-N-(4-((tetrahydrofuran-3-yl)oxy)pyridin-3-yl)pyrazolo[1,5-a]pyrimidine-3-carboxamide] | +++ (Cisplatin sensitization value of <0.02 μM)
3 | COCCOc1ccncc1NC(=O)c1c(N)nn2cc(Cl)cnc12 [I-O-55, 2-amino-6-chloro-N-(4-(2-methoxyethoxy)pyridin-3-yl)pyrazolo[1,5-a]pyrimidine-3-carboxamide] | ++ (Cisplatin sensitization value>0.02 μM but <0.2 μM)
4 | CCOc1ccncc1NC(=O)c1c(N)nn2cc(Cl)cnc12 [I-O-56, 2-amino-6-chloro-N-(4-ethoxypyridin-3-yl)pyrazolo[1,5-a]pyrimidine-3-carboxamide] | +++ (Cisplatin sensitization value of <0.02 μM)
5 | COc1ccncc1NC(=O)c1c(N)nn2cc(Cl)cnc12 [I-O-57, 2-amino-6-chloro-N-(4-methoxypyridin-3-yl)pyrazolo[1,5-a]pyrimidine-3-carboxamide] | +++ (Cisplatin sensitization value of <0.02 μM)
6 | Nc1nn2cc(Cl)cnc2c1C(=O)Nc1cnccc1O[C@H]1CCOC1 [I-O-58, (S)-2-amino-6-chloro-N-(4-((tetrahydrofuran-3-yl)oxy)pyridin-3-yl)pyrazolo[1,5-a]pyrimidine-3-carboxamide] | +++ (Cisplatin sensitization value of <0.02 μM)
7 | Nc1nn2cc(Cl)cnc2c1C(=O)Nc1cnccc1OCC(F)(F)F [I-O-59, 2-amino-6-chloro-N-(4-(2,2,2-trifluoroethoxy)pyridin-3-yl)pyrazolo[1,5-a]pyrimidine-3-carboxamide] | +++ (Cisplatin sensitization value of <0.02 μM)
8 | Nc1nn2cc(Cl)cnc2c1C(=O)Nc1cnccc1OCCN1CCOCC1 [I-O-60, 2-amino-6-chloro-N-(4-(2-morpholinoethoxy)pyridin-3-yl)pyrazolo[1,5-a]pyrimidine-3-carboxamide] | ++ (Cisplatin sensitization value>0.02 μM but <0.2 μM)
9 | Nc1nn2cc(Cl)cnc2c1C(=O)Nc1cnccc1OC1CCOCC1 [I-O-61, 2-amino-6-chloro-N-(4-((tetrahydro-2H-pyran-4-yl)oxy)pyridin-3-yl)pyrazolo[1,5-a]pyrimidine-3-carboxamide] | +++ (Cisplatin sensitization value of <0.02 μM)
10 | Nc1nn2cc(Cl)cnc2c1C(=O)Nc1cnccc1OC1CN2CCC1CC2 (centres unmarked) [I-O-62, 2-amino-6-chloro-N-(4-(quinuclidin-3-yloxy)pyridin-3-yl)pyrazolo[1,5-a]pyrimidine-3-carboxamide] | +++ (Cisplatin sensitization value of <0.02 μM)
11 | CN1CC[C@@H](Oc2ccncc2NC(=O)c2c(N)nn3cc(Cl)cnc23)C1 [I-O-63, (R)-2-amino-6-chloro-N-(4-((1-methylpyrrolidin-3-yl)oxy)pyridin-3-yl)pyrazolo[1,5-a]pyrimidine-3-carboxamide] | ++ (Cisplatin sensitization value>0.02 μM but <0.2 μM)
12 | CN1CCC(Oc2ccncc2NC(=O)c2c(N)nn3cc(Cl)cnc23)CC1 [I-O-64, 2-amino-6-chloro-N-(4-((1-methylpiperidin-4-yl)oxy)pyridin-3-yl)pyrazolo[1,5-a]pyrimidine-3-carboxamide] | +++ (Cisplatin sensitization value of <0.02 μM)
13 | Nc1nn2cc(Cl)cnc2c1C(=O)Nc1cnccc1OC1CCCOC1 (centres unmarked) [I-O-65, 2-amino-6-chloro-N-(4-((tetrahydro-2H-pyran-3-yl)oxy)pyridin-3-yl)pyrazolo[1,5-a]pyrimidine-3-carboxamide] | +++ (Cisplatin sensitization value of <0.02 μM)
14 | Nc1nn2cc(Cl)cnc2c1C(=O)Nc1cnccc1OCCO [I-O-66, 2-amino-6-chloro-N-(4-(2-hydroxyethoxy)pyridin-3-yl)pyrazolo[1,5-a]pyrimidine-3-carboxamide] | + (Cisplatin sensitization value>0.2 μM but <5 μM)
15 | COCCN1CCC[C@H](Oc2ccncc2NC(=O)c2c(N)nn3cc(Cl)cnc23)C1 [I-O-67, (S)-2-amino-6-chloro-N-(4-((1-(2-methoxyethyl)piperidin-3-yl)oxy)pyridin-3-yl)pyrazolo[1,5-a]pyrimidine-3-carboxamide] | ++ (Cisplatin sensitization value>0.02 μM but <0.2 μM)
16 | CN(C)CCOc1cc(Cl)ncc1NC(=O)c1c(N)nn2cc(Cl)cnc12 [I-O-68, 2-amino-6-chloro-N-(6-chloro-4-(2-(dimethylamino)ethoxy)pyridin-3-yl)pyrazolo[1,5-a]pyrimidine-3-carboxamide] | ++ (Cisplatin sensitization value>0.02 μM but <0.2 μM)

Row | SMILES | Cisplatin Sensitization Assay
17 | CN1CC[C@H](Oc2ccncc2NC(=O)c2c(N)nn3cc(Cl)cnc23)C1 [I-O-69, (S)-2-amino-6-chloro-N-(4-((1-methylpyrrolidin-3-yl)oxy)pyridin-3-yl)pyrazolo[1,5-a]pyrimidine-3-carboxamide] | ++ (Cisplatin sensitization value>0.02 μM but <0.2 μM)
18 | Nc1nn2cc(Cl)cnc2c1C(=O)Nc1cnccc1Oc1cccnc1 [I-O-70, 2-amino-6-chloro-N-(4-(pyridin-3-yloxy)pyridin-3-yl)pyrazolo[1,5-a]pyrimidine-3-carboxamide] | +++ (Cisplatin sensitization value of <0.02 μM)
19 | CN(C)CCOc1cc(C(F)(F)F)ncc1NC(=O)c1c(N)nn2cc(Cl)cnc12 [I-O-71, 2-amino-6-chloro-N-(4-(2-(dimethylamino)ethoxy)-6-(trifluoromethyl)pyridin-3-yl)pyrazolo[1,5-a]pyrimidine-3-carboxamide] | + (Cisplatin sensitization value>0.2 μM but <5 μM)
20 | Nc1nn2cc(Cl)cnc2c1C(=O)Nc1cnccc1OC1CC2(CNC2)C1 [I-O-72, N-(4-(2-azaspiro[3.3]heptan-6-yloxy)pyridin-3-yl)-2-amino-6-chloropyrazolo[1,5-a]pyrimidine-3-carboxamide] | + (Cisplatin sensitization value>0.2 μM but <5 μM)
21 | Nc1nn2cc(Cl)cnc2c1C(=O)Nc1cnccc1OC1CNC1 [I-O-73, 2-amino-N-(4-(azetidin-3-yloxy)pyridin-3-yl)-6-chloropyrazolo[1,5-a]pyrimidine-3-carboxamide] | + (Cisplatin sensitization value>0.2 μM but <5 μM)
22 | Nc1nn2cc(Cl)cnc2c1C(=O)Nc1cnccc1O[C@H]1CCCNC1 [I-O-74, (S)-2-amino-6-chloro-N-(4-(piperidin-3-yloxy)pyridin-3-yl)pyrazolo[1,5-a]pyrimidine-3-carboxamide] | ++ (Cisplatin sensitization value>0.02 μM but <0.2 μM)
23 | Nc1nn2cc(Cl)cnc2c1C(=O)Nc1cnccc1OC1CCCNC1 (centres unmarked) [I-O-75, 2-amino-6-chloro-N-(4-(piperidin-3-yloxy)pyridin-3-yl)pyrazolo[1,5-a]pyrimidine-3-carboxamide] | ++ (Cisplatin sensitization value>0.02 μM but <0.2 μM)
24 | Nc1nn2cc(Cl)cnc2c1C(=O)Nc1cnccc1O[C@H]1CCNC1 [I-O-76, (S)-2-amino-6-chloro-N-(4-(pyrrolidin-3-yloxy)pyridin-3-yl)pyrazolo[1,5-a]pyrimidine-3-carboxamide] | ++ (Cisplatin sensitization value>0.02 μM but <0.2 μM)
25 | Nc1nn2cc(Cl)cnc2c1C(=O)Nc1cnccc1O[C@@H]1CCNC1 [I-O-77, (R)-2-amino-6-chloro-N-(4-(pyrrolidin-3-yloxy)pyridin-3-yl)pyrazolo[1,5-a]pyrimidine-3-carboxamide] | ++ (Cisplatin sensitization value>0.02 μM but <0.2 μM)
26 | Nc1nn2cc(Cl)cnc2c1C(=O)Nc1cnccc1O[C@H]1C[C@]2(CCN2)C1 [I-O-78, N-(4-((4s,6r)-1-azaspiro[3.3]heptan-6-yloxy)pyridin-3-yl)-2-amino-6-chloropyrazolo[1,5-a]pyrimidine-3-carboxamide] | + (Cisplatin sensitization value>0.2 μM but <5 μM)
27 | Nc1nn2cc(Cl)cnc2c1C(=O)Nc1cnccc1O[C@H]1C[C@@]2(CCN2)C1 [I-O-79, N-(4-((4r,6s)-1-azaspiro[3.3]heptan-6-yloxy)pyridin-3-yl)-2-amino-6-chloropyrazolo[1,5-a]pyrimidine-3-carboxamide] | ++ (Cisplatin sensitization value>0.02 μM but <0.2 μM)
28 | Nc1nn2cc(Cl)cnc2c1C(=O)Nc1cnccc1OC1CCNCC1 [I-O-80, 2-amino-6-chloro-N-(4-(piperidin-4-yloxy)pyridin-3-yl)pyrazolo[1,5-a]pyrimidine-3-carboxamide] | +++ (Cisplatin sensitization value of <0.02 μM)
29 | Nc1nn2cc(Cl)cnc2c1C(=O)Nc1cnccc1O[C@@H]1CCCNC1 [I-O-81, (R)-2-amino-6-chloro-N-(4-(piperidin-3-yloxy)pyridin-3-yl)pyrazolo[1,5-a]pyrimidine-3-carboxamide] | ++ (Cisplatin sensitization value>0.02 μM but <0.2 μM)
30 | N#CCc1cnc2c(C(=O)Nc3cnccc3OC3CNC3)c(N)nn2c1 [I-O-82, 2-amino-N-(4-(azetidin-3-yloxy)pyridin-3-yl)-6-(cyanomethyl)pyrazolo[1,5-a]pyrimidine-3-carboxamide] | ++ (Cisplatin sensitization value>0.02 μM but <0.2 μM)
31 | N#CCc1cnc2c(C(=O)Nc3cnccc3OCCN)c(N)nn2c1 [I-O-83, 2-amino-N-(4-(2-aminoethoxy)pyridin-3-yl)-6-(cyanomethyl)pyrazolo[1,5-a]pyrimidine-3-carboxamide] | +++ (Cisplatin sensitization value of <0.02 μM)
32 | N#CCc1cnc2c(C(=O)Nc3cnccc3OC3CCNCC3)c(N)nn2c1 [I-O-84, 2-amino-6-(cyanomethyl)-N-(4-(piperidin-4-yloxy)pyridin-3-yl)pyrazolo[1,5-a]pyrimidine-3-carboxamide] | ++ (Cisplatin sensitization value>0.02 μM but <0.2 μM)
